In article PMC8699021, “Which Properties Allow Ligands to Open and Bind to the Transient Binding Pocket of Human Aldose Reductase?” (Biomolecules, 2021):

Legend:
[1] = target: T1, ALR-2 (human aldose reductase, EC 1.1.1.21) (Homo sapiens, UniProt P15121); experiment: ITC direct titration; assay type: binding
T1 construct: gene AKR1B1; one molecule per asymmetric unit
From the text: ITC direct titration on ALR-2 (human aldose reductase, EC 1.1.1.21)

[2] = target: T1, ALR-2 (human aldose reductase, EC 1.1.1.21); experiment: ITC direct titration; X-ray; assay type: binding
From the text: ITC direct titration; X-ray on ALR-2 (human aldose reductase, EC 1.1.1.21)

Kd [1]	Kd [2]	SMILES
0.42 ± 0.08 µM	–	O=C(O)COc1cc(F)ccc1C(=O)NCc1nc2ccccc2s1 [compound 9, inhibitor 9]
–	2.3 ± 0.3 µM	O=C(O)COc1cc(F)ccc1C(=O)NCc1cccc(B(O)O)c1 [compound 4, 2-(2-((3-boronobenzyl)carbamoyl)-5-fluorophenoxy) acetic acid]
–	5 ± 0.6 µM	C[S+]([O-])c1cccc(CNC(=O)c2ccc(F)cc2OCC(=O)O)c1 (stereo not drawn) [compound 3, 2-(5-fluoro-2-((3-(methylsulfinyl)benzyl)carbamoyl)phenoxy)acetic acid]
